# Experimental data taken from paper PMC12947280, “An Antifungal with a Novel Mechanism of Action Discovered via Resistance Gene-Guided Genome Mining” (ACS Central Science, 2026).
# Where two headings read alike, the source gives them in different places.
# What was measured:
# Test in all cases: Antifungal screening, broth microdilution MIC
# Format in all cases: cell-based
# [1] = system: Fusarium oxysporum ATCC 48112; conditions: for MIC: ATCC48112, Fusarium oxysporum ATCC 48112
# Protocol: (§1) Antifungal screening of 1
# (§2) Antifungal screening was performed by Micromyx, LLC (Kalamazoo, Michigan, USA). Test organisms were either reference strains from the American Type Culture Collection (ATCC; Manassas, VA), the Centers for Disease Control and Prevention (CDC; Atlanta, GA), or clinical isolates from the Micromyx (MMX) collection. Upon receipt at Micromyx, the isolates were streaked under suitable conditions onto agar medium appropriate to each organism. The yeast isolates were incubated for 24 hr at 35 °C and the fungi were incubated for 7 to 13 days at 35 °C, as appropriate. Colonies harvested from these growth plates were resuspended in the appropriate medium containing a cryoprotectant. Aliquots of each suspension were then frozen […]
# (§3) Prior to testing, the yeast isolates were streaked from frozen vials onto Sabouraud Dextrose Agar (SAB; Becton Dickenson [BD]/BBL; Sparks, MD, Lot No. 2228660) and were incubated at 35°C for 24 hr. Additional fungal isolates were streaked from frozen vials onto potato dextrose agar (BD/BBL; Sparks, MD, Lot No. 2046481) and incubated under optimal conditions for […]
# (§4) All MIC measurements were performed in RPMI1640 from Hyclone Laboratories (Logan, UT;
# (§5) Cat. No. SH3001104; Lot No. AC10257966A) buffered with MOPS to pH-7 from Millipore […]
# (§6) MIC values were determined using a broth microdilution procedure described by CLSI. 5,6.
# (§7) Automated liquid handlers (Multidrop 384, Labsystems, Helsinki, Finland; Biomek 3000 and […]
# (§8) Biomek FX, Beckman Coulter Fullerton CA) were used to conduct serial dilutions and liquid […]
# (§9) Solutions of 1 were added in an 11 point 2x serial dilution in DMSO with a maximum tested concentration of 32 μg/ml in the culture medium. Drug solution was added at 1% v/v into 200 μl […]
# (§10) A standardized inoculum of each test organism was prepared in appropriate media per CLSI methods.5,6 The plates were then inoculated with 10 µL of the diluted inoculum using the Biomek 3000 from low to high drug concentration, resulting in a final concentration of approximately 0.5 to 2.5 x 10^3 CFU/mL for yeast and 0.2 to 2.5 x 10^4 CFU/mL for the other fungi. An un-inoculated plate was incubated for the purpose of assessing solubility of the drug […]
# (§11) The plates were stacked 3 to 4 high, covered with a sterile lid on the top plate, and incubated aerobically at 35 °C for 24, 48, and 72 h. For yeast, both the MIC based on complete inhibition and 50% inhibition were reported at 24 and 48 h. For other fungal isolates, the MIC values were recorded at 24 and 48 hr and were based on complete inhibition and 50% inhibition.
# (§12) Intact protein LCMS analysis
# (§13) 10 μM of recombinant S. cerevisiae ALS was incubated with 10 μM compound 1 in buffer (50 mM Tris pH 7.5, 100 mM KCl, 10 uM FAD, 1 mM TPP, 10 mM MgCl2 (with 2.5% DMSO from compound)) at 22 °C for 30 min. Unreacted 1 was removed by passing the reaction mixture through a 30 kDa MWCO filter (Millipore). The collected protein was then denatured and reduced by incubation with 6 M urea and 10 mM DTT at 37 °C for 1 h followed by 20 mM iodoacetamide alkylation for 30 min in dark. This reaction mixture then underwent buffer exchange into 100 mM Tris-HCl pH 8.0 and 10 mM CaCl2 buffer using a 30 kDa MWCO filter.
# (§14) The protein was then incubated with sequencing grade chymotrypsin (Promega) (15:1,w/w) for […]
# (§15) After digestion, the peptide mixture was immediately analysed by LC-MS/MS using a Waters I-class UPLC equipped with an ACQUITY UPLC BEH C18 column (2.1x50 mm, 1.7 µm, Waters) at 50 °C coupled to a Waters Synapt G2Si MS. The sample was injected and subjected to an LC gradient starting from 0.5% mobile phase B (ACN with 0.1% formic acid) for 5 min with linear increase to 40% B over 35 min. Mobile phase A was 0.1% formic acid water. Flow rate was maintained at 0.3 ml/min. MS/MS data was acquired in positive ionization mode with data dependent MS/MS acquisition. Peptide mapping was performed with PEAKs Studio 8.0 (Bioinformatics Solutions Inc.) followed by manual review to identify peptides putatively modified by covalent addition of 1. […]
# [2] = system: Mucor circinelloides ATCC 24905; conditions: for MIC: ATCC24905, Mucor circinelloides ATCC 24905
# Protocol: as §1, §2, §3, §4, §5, §6, §7, §8, §9, §10, §11, §12, §13, §14, §15
# [3] = system: Aspergillus fumigatus; conditions: for MIC: Aspergillus fumigatus
# Protocol: as §1, §2, §3, §4, §5, §6, §7, §8, §9, §10, §11, §12, §13, §14, §15
# [4] = system: Aspergillus niger ATCC 9508; conditions: for MIC: ATCC9508, Aspergillus niger ATCC 9508
# Protocol: as §1, §2, §3, §4, §5, §6, §7, §8, §9, §10, §11, §12, §13, §14, §15
# [5] = 24 hr, read-out: MIC 100% growth inhibition
# [6] = 24 hr, read-out: MIC >50% growth inhibition
# [7] = 48 hr, read-out: MIC 100% growth inhibition
# [8] = 48 hr, read-out: MIC >50% growth inhibition
compound,measurement,setting,value
CCCC1C(C)=CC2CC=CC3(C)C2C1C(=O)C31C(=O)NC(CCCO)C1=O (stereo not drawn) [compound 1],MIC,[1]; [5],> 32 µg/mL
same,MIC,[1]; [6],> 32 µg/mL
same,MIC,[1]; [7],> 32 µg/mL
same,MIC,[1]; [8],> 32 µg/mL
same,MIC (Table S5),"[1]; Fusarium oxysporum, species summary",> 32
same,MIC,[2]; [5],0.5 µg/mL
same,MIC,[2]; [6],0.12 µg/mL
same,MIC,[2]; [7],16 µg/mL
same,MIC,[2]; [8],4 µg/mL
same,MIC (Table S5),"[2]; Mucor circinelloides, species summary",0.5
same,MIC (Table S5),"[3]; A. fumigatus, species summary",2-16
same,MIC,"[3]; 24 h, read-out: MIC 100% growth inhibition, Aspergillus fumigatus ATCC MYA-3626, 24 hr",4 µg/mL
same,MIC,"[3]; 24 h, read-out: MIC 100% growth inhibition, Aspergillus fumigatus CDC 0731 (azole resistant), 24 hr",16 µg/mL
same,MIC,"[3]; 24 h, read-out: MIC 100% growth inhibition, Aspergillus fumigatus CDC 0732 (azole resistant), 24 hr",8 µg/mL
same,MIC,"[3]; 24 h, read-out: MIC 100% growth inhibition, Aspergillus fumigatus CDC 0733 (azole resistant), 24 hr",8 µg/mL
same,MIC,"[3]; 24 h, read-out: MIC 100% growth inhibition, Aspergillus fumigatus CDC 0734 (azole resistant), 24 hr",8 µg/mL
same,MIC,"[3]; 24 h, read-out: MIC 100% growth inhibition, Aspergillus fumigatus CDC 0735 (azole resistant), 24 hr",8 µg/mL
same,MIC,"[3]; 24 h, read-out: MIC 100% growth inhibition, Aspergillus fumigatus CDC 0736 (azole susceptible), 24 hr",8 µg/mL
same,MIC,"[3]; 24 h, read-out: MIC 100% growth inhibition, Aspergillus fumigatus CDC 0737 (azole susceptible), 24 hr",16 µg/mL
same,MIC,"[3]; 24 h, read-out: MIC 100% growth inhibition, Aspergillus fumigatus CDC 0738 (azole susceptible), 24 hr",2 µg/mL
same,MIC,"[3]; 24 h, read-out: MIC 100% growth inhibition, Aspergillus fumigatus CDC 0739 (azole susceptible), 24 hr",4 µg/mL
same,MIC,"[3]; 24 h, read-out: MIC 100% growth inhibition, Aspergillus fumigatus CDC 0740 (azole susceptible), 24 hr",4 µg/mL
same,MIC,"[3]; 24 h, read-out: MIC >50% growth inhibition, Aspergillus fumigatus ATCC MYA-3626, 24 hr",4 µg/mL
same,MIC,"[3]; 24 h, read-out: MIC >50% growth inhibition, Aspergillus fumigatus CDC 0731 (azole resistant), 24 hr",2 µg/mL
same,MIC,"[3]; 24 h, read-out: MIC >50% growth inhibition, Aspergillus fumigatus CDC 0732 (azole resistant), 24 hr",2 µg/mL
same,MIC,"[3]; 24 h, read-out: MIC >50% growth inhibition, Aspergillus fumigatus CDC 0733 (azole resistant), 24 hr",4 µg/mL
same,MIC,"[3]; 24 h, read-out: MIC >50% growth inhibition, Aspergillus fumigatus CDC 0734 (azole resistant), 24 hr",4 µg/mL
same,MIC,"[3]; 24 h, read-out: MIC >50% growth inhibition, Aspergillus fumigatus CDC 0735 (azole resistant), 24 hr",4 µg/mL
same,MIC,"[3]; 24 h, read-out: MIC >50% growth inhibition, Aspergillus fumigatus CDC 0736 (azole susceptible), 24 hr",4 µg/mL
same,MIC,"[3]; 24 h, read-out: MIC >50% growth inhibition, Aspergillus fumigatus CDC 0737 (azole susceptible), 24 hr",2 µg/mL
same,MIC,"[3]; 24 h, read-out: MIC >50% growth inhibition, Aspergillus fumigatus CDC 0738 (azole susceptible), 24 hr",1 µg/mL
same,MIC,"[3]; 24 h, read-out: MIC >50% growth inhibition, Aspergillus fumigatus CDC 0739 (azole susceptible), 24 hr",1 µg/mL
same,MIC,"[3]; 24 h, read-out: MIC >50% growth inhibition, Aspergillus fumigatus CDC 0740 (azole susceptible), 24 hr",1 µg/mL
same,MIC,"[3]; 48 h, read-out: MIC 100% growth inhibition, Aspergillus fumigatus ATCC MYA-3626, 48 hr",> 32 µg/mL
same,MIC,"[3]; 48 h, read-out: MIC 100% growth inhibition, Aspergillus fumigatus CDC 0731 (azole resistant), 48 hr",> 32 µg/mL
same,MIC,"[3]; 48 h, read-out: MIC 100% growth inhibition, Aspergillus fumigatus CDC 0732 (azole resistant), 48 hr",> 32 µg/mL
same,MIC,"[3]; 48 h, read-out: MIC 100% growth inhibition, Aspergillus fumigatus CDC 0733 (azole resistant), 48 hr",> 32 µg/mL
same,MIC,"[3]; 48 h, read-out: MIC 100% growth inhibition, Aspergillus fumigatus CDC 0734 (azole resistant), 48 hr",> 32 µg/mL
same,MIC,"[3]; 48 h, read-out: MIC 100% growth inhibition, Aspergillus fumigatus CDC 0735 (azole resistant), 48 hr",> 32 µg/mL
same,MIC,"[3]; 48 h, read-out: MIC 100% growth inhibition, Aspergillus fumigatus CDC 0736 (azole susceptible), 48 hr",> 32 µg/mL
same,MIC,"[3]; 48 h, read-out: MIC 100% growth inhibition, Aspergillus fumigatus CDC 0737 (azole susceptible), 48 hr",> 32 µg/mL
same,MIC,"[3]; 48 h, read-out: MIC 100% growth inhibition, Aspergillus fumigatus CDC 0738 (azole susceptible), 48 hr",> 32 µg/mL
same,MIC,"[3]; 48 h, read-out: MIC 100% growth inhibition, Aspergillus fumigatus CDC 0739 (azole susceptible), 48 hr",32 µg/mL
same,MIC,"[3]; 48 h, read-out: MIC 100% growth inhibition, Aspergillus fumigatus CDC 0740 (azole susceptible), 48 hr",32 µg/mL
same,MIC,"[3]; 48 h, read-out: MIC >50% growth inhibition, Aspergillus fumigatus ATCC MYA-3626, 48 hr",> 32 µg/mL
same,MIC,"[3]; 48 h, read-out: MIC >50% growth inhibition, Aspergillus fumigatus CDC 0731 (azole resistant), 48 hr",> 32 µg/mL
same,MIC,"[3]; 48 h, read-out: MIC >50% growth inhibition, Aspergillus fumigatus CDC 0732 (azole resistant), 48 hr",> 32 µg/mL
same,MIC,"[3]; 48 h, read-out: MIC >50% growth inhibition, Aspergillus fumigatus CDC 0733 (azole resistant), 48 hr",> 32 µg/mL
same,MIC,"[3]; 48 h, read-out: MIC >50% growth inhibition, Aspergillus fumigatus CDC 0734 (azole resistant), 48 hr",> 32 µg/mL
same,MIC,"[3]; 48 h, read-out: MIC >50% growth inhibition, Aspergillus fumigatus CDC 0735 (azole resistant), 48 hr",32 µg/mL
same,MIC,"[3]; 48 h, read-out: MIC >50% growth inhibition, Aspergillus fumigatus CDC 0736 (azole susceptible), 48 hr",16 µg/mL
same,MIC,"[3]; 48 h, read-out: MIC >50% growth inhibition, Aspergillus fumigatus CDC 0737 (azole susceptible), 48 hr",16 µg/mL
same,MIC,"[3]; 48 h, read-out: MIC >50% growth inhibition, Aspergillus fumigatus CDC 0738 (azole susceptible), 48 hr",32 µg/mL
same,MIC,"[3]; 48 h, read-out: MIC >50% growth inhibition, Aspergillus fumigatus CDC 0739 (azole susceptible), 48 hr",16 µg/mL
same,MIC,"[3]; 48 h, read-out: MIC >50% growth inhibition, Aspergillus fumigatus CDC 0740 (azole susceptible), 48 hr",16 µg/mL
same,MIC,[4]; [5],2 µg/mL
same,MIC,[4]; [6],1 µg/mL
same,MIC,[4]; [7],32 µg/mL
same,MIC,[4]; [8],8 µg/mL
same,MIC (Table S5),"[4]; Aspergillus niger, species summary",2
